Legend:
[1] = system: non-calcified plaque; test: Coronary plaque by MDCT (64-slice CT), Phase 2 ACS study, 24-week substudy; assay type: in vivo, human; settings: all three doses, serial MDCT images at 24 weeks
Experimental: In this randomized, placebo-controlled study, 191 patients were randomized 3 weeks after an acute coronary syndrome (ACS) to receive 25, 50, or 100 mg N-[3-[5-[(4-fluorophenyl)methyl]-2-thienyl]-1-methyl-2-propynyl]-N-hydroxyurea or placebo qd for 12 weeks. Baseline assessments were performed at the start of treatment and these baseline results were compared with repeat assessments during various follow-up periods during the treatment study. A subset of 93 patients who had undergone a Multidetector (64 slice coronary) Computerized Tomography (MDCT) examination at baseline continued on study medication for a total of 24 weeks and underwent a repeat scan. For those patients who continued on study medication for a total of 24 weeks, contrast-enhanced CT examination was performed at baseline and after 24 weeks of treatment with a 64-slice scanner (GE LightSpeed VCT; GE Healthcare, USA). Target plaque lesions were defined prospectively as non-calcified plaque with measurable low-density components of <60 HU situated in the proximal or middle portion of either the left main, left anterior ascending, left circumflex or right coronary artery causing at least 20% luminal stenosis. Prior to analysis of results, patients had their MDCT examinations evaluated twice by the same reviewer and also by a second reviewer for evaluation of intraobserver and interobserver variability of measurements.

[2] = system: high sensitivity C reactive protein (hsCRP); test: hsCRP in blood by immunoturbidimetric method, Phase 2 ACS study; assay type: in vivo, human
Experimental: (§1) In this randomized, placebo-controlled study, 191 patients were randomized 3 weeks after an acute coronary syndrome (ACS) to receive 25, 50, or 100 mg N-[3-[5-[(4-fluorophenyl)methyl]-2-thienyl]-1-methyl-2-propynyl]-N-hydroxyurea or placebo qd for 12 weeks. Baseline assessments were performed at the start of treatment and these baseline results were compared with repeat assessments during various follow-up periods during the treatment study. A subset of 93 patients who had undergone a Multidetector (64 slice coronary) Computerized Tomography (MDCT) examination at baseline continued on study medication for a total of 24 weeks and underwent a repeat scan. Patients received a single daily oral dose of 25 mg, 50 mg, or 100 mg of N-[3-[5-[(4-fluorophenyl)methyl]-2-thienyl]-1-methyl-2-propynyl]-N-hydroxyurea or matching placebo by administering 2 capsules as prepared in Example 3 for 12 weeks or 24 weeks. Blood samples for measurement of ex vivo leukotriene B4 (LTB4) and high sensitivity C reactive protein (hsCRP), and urine samples for measurement of urinary leukotriene E4 (LTE4) levels were collected pre-dose on weeks 2, 6 and 12. Blood samples were assayed for ex vivo LTB4 by enzyme-linked immunosorbent assay, and for hsCRP by an immunoturbidimetric method. Urine samples were assayed for LTE4 using Liquid Chromatography with Tandem Mass Spectrometry (LC/MS/MS).

[3] = system: inflammatory genes, including IL-6, IL 8, IL-10, MMP9, I-kappa-B, osteopontin; test: Inflammatory gene expression in carotid plaques (TaqMan), Phase 2 CEA study; assay type: in vivo, human; settings: rupture-prone plaque subtypes, 100 mg qd oral, 12 weeks
Experimental: In this randomized, double blind, placebo-controlled study, 50 patients with significant carotid artery stenosis (60-90%) were treated once daily for 12 weeks with orally administered 100 mg N-[3-[5-[(4-fluorophenyl)methyl]-2-thienyl]-1-methyl-2-propynyl]-N-hydroxyurea or placebo prior to undergoing CEA, at which time endarterectomy tissue (plaque) was collected and stored for subsequent tissue analysis. Baseline assessments are performed at the start of treatment and these baseline results were compared with repeat assessments during various follow-up periods of treatment. The treatment was conducted for twelve weeks at which time these baseline assessments were performed and compared.
At the end of 12 weeks treatment with 100 mg of N-[3-[5-[(4-fluorophenyl)methyl]-2-thienyl]-1-methyl-2-propynyl]-N-hydroxyurea, patients underwent CEA, at which time endarterectomy tissue (plaque) was collected, fixed in 10% formalin and paraffin blocks, and stored for subsequent tissue analysis. […] A portion of each of the plaques was also analyzed for inflammatory gene expression after isolation of total RNA and reverse transcription using a TaqMan® High Capacity cDNA assay.
LTB4, LTE4 and hsCRP biomarker data were assessed using change from baseline comparisons and an ANCOVA was used to compare the treatment groups where the covariate was the baseline value of the outcome measure. […]

[4] = system: leukotriene B4 (LTB4); test: Ex vivo LTB4 in blood by ELISA, Phase 2 ACS study; design: species or system human; settings: trough drug levels
Experimental: as §1

[5] = system: leukotriene E4 (LTE4); test: Urinary LTE4 by LC/MS/MS, Phase 2 ACS study; assay type: in vivo, human; settings: all doses (25, 50, 100 mg qd)
Experimental: as §1

CC(C#Cc1ccc(Cc2ccc(F)cc2)s1)N(O)C(N)=O (centres unmarked) [VIA-2291, N-[3-[5-[(4-fluorophenyl)methyl]-2-thienyl]-1-methyl-2-propynyl]-N-hydroxyurea]
new plaque lesions compared with placebo [1]: reduced | non-calcified plaque volume compared with placebo [1]: reduced | hsCRP within group between 12 and 24 weeks ([2]; 100 mg group, P<0.01): significant reduction | decrease in hsCRP compared with placebo ([2]; 100-mg group at 24 weeks, P=0.0002): 67% | expression of inflammatory genes, including IL-6, IL 8, IL-10, MMP9, I-kappa-B, osteopontin [3]: reduction in expression | inhibition of ex vivo LTB4 ([4]; 100-mg group, in >90% of patients): approximately 80% | ex vivo leukotriene LTB4 ([4]; all doses (25, 50, 100 mg qd), P<0.0001, dose-dependent): significantly reduced | urinary leukotriene LTE4 [5]: significantly reduced
